Laboratory results taken from patent publication US8288374B2, “Medicinal composition containing benzo[a]phenoxazine compound as the active ingredient for prevention or treatment of protozoal disease” (Hoshi University, priority 2008, dated 2012).
≈ marks a conversion by molar mass, not a printed value. Like-named read-outs stand apart in the source and are kept apart here.

Legend:
[1] = tested on: Trypanosoma cruzi (Tulahuen C2C4 strain); assay: American trypanosome protozoa growth inhibition screening test; assay type: cell-based; settings: Trypanosoma cruzi, Table 5, in rat L6 cells, 96 hours, CPRG/Nonidet, read-out: 50% Growth inhibition concentration Trypanosoma cruzi
Method: In the present experiment, amastigote and trypomastigote infected with rat L6 cells of protozoa of Trypanosoma cruzi (Tulahuen C2C4 starin) were used. As medium used in the test, RPMI 1640 medium containing L6 cells was supplemented so that L-glutamine (200 mM) become 1%, fetal bovine serum becomes 10%, which was cultured under CO2 concentration 5%, at 37° C.
The compounds of the present invention to be used in the present test and the positive control drug (benznidazole) were dissolved in DMSO to make a test solution of a predetermined concentration.
A medium containing 5×10^3 protozoa was added to wells of a 96-well culture plate, and pre-cultured for 48 hours. After replacing the medium, test solution containing drug of a predetermined concentration or a drug-free DMSO was added. Test solutions were taken by duplicates.
After culturing the culture plate in an incubator for 96 hours, growth inhibition activity was tested. Test was conducted as follows. 50 μL of CPRG/Nonidet was added to each well, and allowed to rest for 2 to 6 hours. Next, the culture plate was placed on a fluorescent micro-plate reader. The absorbance was measured at 540 nm, and the trypanosome infection rate of the test solution added group and control group were calculated.
(§1) Growth inhibition rate (%)={1−(b−a)/(c−a)}×100 • a: early infection rate • b: infection rate when test solution was added • c: infection rate of the control

Plasmodium falciparum K1 = assay: Chloroquine resistant-Plasmodium falciparum growth inhibition screening test; assay type: cell-based; settings: EC50 against rat L6 cells / EC50 against P. falciparum K1
Method: In the present experiment, protozoa of plasmodium falsiparum K1 strain was used. RPMI-1640 medium sterilized with a filter to which human serum was added to be 5%, was used in the experiment. Malarial parasites were cultured under 3% O2 concentration, 4% CO2 concentration, 93% N2 concentration, and at a temperature of 37° C.
The compounds of the present invention to be used in the present test and the positive control drug (chloroquine) were dissolved in DMSO to make a test solution of a predetermined concentration. Cultured malaria parasite infected-erythrocytes were collected by centrifugation, and diluted with non-infected erythrocyte so that the early infection rate was 0.15%. Hematocrit level at that time was 2.5%.
200 μL of malaria infected solution was added to wells of a 96-well culture plate, and adjusted by adding a test solution containing drug of a predetermined concentration or a drug-free DMSO. Test solutions were taken by duplicates.
[…] […] Radiation intensity was measured with a beta plate liquid scintillation counter (Wallac), and malarial parasite infection rates of the test solution added group and the control group were calculated.
Growth inhibition rate (%)={1−(b−a)/(c−a)}×100 • a: early infection rate • b: infection rate when test solution was added • c: infection rate of the control 3. Growth Inhibition Test of Rat L6 Cells
Antimalarial activity of a sample was estimated from EC50 values of the sample against chloroquine resistant-Plasmodium falciparum and rat L6 cells. […] It means that the larger the value of the selection toxity, the less the risk of the side effect is. Chemotherapy index=(EC50 value of a sample against rat L6 cells)/(EC50 value of a sample against chloroquine resistant-Plasmodium falsiparum)

Rat L6 cells = assay: Growth inhibition test of rat L6 cells; assay type: cell-based; settings: Table 1, 72 hours, Alamar Blue, read-out: 50% Growth inhibition concentration Cytoxicity L6
Method: Rat derived-L6 cells (rat skeletal myoblast cell) were used. A medium, RPMI1640 medium was supplemented so that L-glutamin (200 mM) is 1%, and fetal bovine serum 10%, and the medium was cultured under CO2 concentration 5%, at 37° C.
The compounds of the present invention and the control drugs to be used in the test were dissolved in DMSO, to make a test solution of a predetermined concentration.
Pre-culture was conducted and medium containing cells which have entered the logarithmic growth phase was taken to wells of a 96-well culture plate. Then, a test solution containing drug of a predetermined concentration or a drug-free DMSO was added. Test solutions were taken by duplicates.
Culture plate was cultured for 72 hours in an incubator, to test the growth inhibition activity. Test was conducted as follows. 10 μL of Alamar Blue aqueous solution was added to each well, and the resultant was further cultured for 2 hours. Next, the culture plate was placed on a fluorescent micro-plate reader (Spectramax Gemeni XS; US Molecular Device), radiated at an excited wavelength of 536 nm. Fluorescent intensity was measured at 588 nm, and residual rate of L6 cells of the test solution added group, and that of the control was calculated.
Growth inhibition rate (%)={(C−A)/(B−A)}×100 • A: Primary cell count • B: cell count of control, 3 days after • C: cell count of wells added with a sample, 3 days after 4. Determination of Drug Efficacy Against Chloroquine Resistant-Plasmodium

[2] = tested on: Trypanosoma brucei rhodesiense (STIB 900 strain); assay: African trypanosome protozoa growth inhibition screening test; assay type: cell-based; settings: read-out: 50% Growth inhibition concentration Trypanosoma brucei rhod.
Method: In the present experiment, protozoa of Tripanosoma brucei rhodensiense (STIB 900 Strain), a trypomastigote living in blood stream, was used. The medium used in the experiment was a MEM medium which was sterilized with a filter and supplemented with 25 mM N-2-hydroxyeihylpiperazine-2-ethansulfonic acid (HEPES), 1 g/L glucose, 1% MEM non-essential amino acid, 0.2 mM 2-mercaptoethanol, 2 mM sodium pyruvate, 0.1 mM hypoxanthine, and 15% heat-treated horse serum. The protozoa was cultured in an atmosphere of CO2 concentration 5%, at a temperature of 37° C.
The compounds of the present invention to be used in the present test and the positive control drug (melarsoprol) were dissolved in dimethylsulfoxide (DMSO) to make a test solution of a predetermined concentration.
A medium containing 8×10^3 protozoa, and a test solution containing a drug of a predetermined concentration of a drug-free DMSO were added to wells of a 96-well culture plate, and subsequently, medium was added so that the amount in each well becomes 100 μL. Test solutions were taken by duplicates.
(§2) After culturing the culture plate for 72 hours in an incubator, growth inhibition activity was tested. Test was conducted as follows. 10 μL of Alamar Blue aqueous solution was added to each well, and the resultant was further cultured for 2 hours. Next, the culture plate was placed on a fluorescent micro-plate reader (Spectramax Gemeni XS; US Molecular Device), radiated at an excited wavelength of 536 nm. Fluorescent intensity was measured at 588 nm, to calculate the trypanosome protozoa infected rate of the test solution added-group, and of the control group.
as §1

[3] = tested on: Leishmania donovani (MHOM/ET/67/L82 strain); assay: Leishmania protozoa growth inhibition screening test; assay type: cell-based; settings: Leishmania donovani; Table 5; amastigotes, 72 hours, Alamar Blue; read-out: 50% Growth inhibition concentration Leishmania donovani
Method: In the present experiment, Leishmania donovani (MHOM/ET/67/L82 strain) was used. Protozoa was subcultured in Syrian Golden hamster, from which an amastigote was obtained. In the experiment, SM medium supplemented with 10% heat-treated bovine fetal serum was used, which was adjusted to pH 5.4, and cultured in an atmosphere of 5% CO2 concentration, at 37° C.
The compounds of the present invention to be used in the present test and the positive control drug (miltefosine) were dissolved in DMSO to make a test solution of a predetermined concentration.
After adding a medium containing a predetermined number of protozoa to wells of a 96-well culture'plate and pre-treating, concentration of the amastigote was measured with CASY cell analysis system (Scharfe, Germany). Then, test solution containing a drug of a predetermined concentration or a drug-free DMSO was added. Test solutions were taken by duplicates.
as §2, with “and infection rate of leishmania” for “to calculate the trypanosome”, “protozoa” for “protozoa infected rate”, “added group” for “added-group,”, “and” for “and of the”, “was calculated.” for “group.”
as §1

Row | SMILES | EC50 [1] [µg/mL] | Selective toxicity (Plasmodium falciparum K1) | EC50 (Rat L6 cells) [µg/mL] | EC50 ([2]; Table 5, 72 hours, Alamar Blue) [µg/mL] | EC50 [3] [µg/mL] | melting point [°C] | EC50 ([2]; 72 h) [µg/mL]
1 | O=C(Cn1ccnc1[N+](=O)[O-])NCc1ccccc1 [Benznidazole, benznidazole, reference compound] | 0.225 (≈ 0.866 µM) |  |  |  |  |  | 
2 | CCN(CC)c1ccc2nc3c4ccc(Br)cc4c(=Nc4ccncc4)cc-3oc2c1 [Compound 1G, 3-Bromo-N,N-diethyl-5-(pyridin-4-ylimino)-5H-benzo[a]phenoxazin-9-amine] | > 30 | >18000 | > 90 | 61 (≈ 129 µM) | 19.1 (≈ 40.4 µM) | 269 to 271 | 
3 | CCN(CC)c1ccc2nc3c4ccccc4c(=Nc4nc5ccc(Cl)cc5s4)cc-3oc2c1 [Compound 1I, 5-(6-Chlorobenzo[d]thiazol-2-ylimino)-N,N-diethyl-5H-benzo[a]phenoxazin-9-amine] | > 30 | >210 | > 90 | 44.8 (≈ 92.4 µM) | 19.6 (≈ 40.5 µM) | 229 to 231 | 
4 | CCN(CC)c1ccc2nc3c4ccccc4c(=Nc4cc(C)on4)cc-3oc2c1 [Compound 1J, N,N-Diethyl-5-(5-methylisoxazol-3-ylimino)-5H-benzo[a]phenoxazin-9-amine] | 21.8 (≈ 54.8 µM) | 7360 | 36.8 (≈ 92.4 µM) | 11.8 (≈ 29.6 µM) | 1.86 (≈ 4.67 µM) | 195 to 196 | 
5 | CCN(CC)c1ccc2nc3c4ccccc4c(=Nc4ncc(Cl)cc4Cl)cc-3oc2c1 [Compound 1K, 5-(3,5-Dichloropyridin-2-ylimino)-N,N-diethyl-5H-benzo[a]phenoxazin-9-amine] | > 30 | 2866 | 83.1 (≈ 179 µM) | 38.6 (≈ 83.3 µM) | 8.13 (≈ 17.5 µM) | 192 to 193 | 
6 | CCN(CC)c1ccc2nc3c4ccccc4c(=Nc4ncccn4)cc-3oc2c1 [Compound 1L, N,N-Diethyl-5-(pyrimidin-2-ylimino)-5H-benzo[a]phenoxazin-9-amine] | 1.78 (≈ 4.5 µM) | 2700 | 5.4 (≈ 13.7 µM) | 0.804 (≈ 2.03 µM) | 0.662 (≈ 1.67 µM) | 208 to 210 | 
7 | CCN(CC)c1ccc2nc3c4ccccc4c(=Nc4nc5ccc(OC)cc5s4)cc-3oc2c1 [Compound 1M, N,N-Diethyl-5-(6-methoxybenzo[d]thiazol-2-ylimino)-5H-benzo[a]phenoxazin-9-amine] | > 30 | 1492 | 80.6 (≈ 168 µM) | 40 (≈ 83.2 µM) | 13.8 (≈ 28.7 µM) | 197 to 198 | 
8 | Nc1nc(N)nc(Nc2ccc([As]3SCC(CO)S3)cc2)n1 (stereo not drawn) [Melarsoprol, melarsoprol, reference compound] |  |  |  |  |  |  | 0.0024
9 | CCCCCCCCCCCCCCCCOP(=O)([O-])OCC[N+](C)(C)C [Milfotesine, miltefosine, reference compound] |  |  |  |  | 0.114 (≈ 0.278 µM) |  | 
